Values of other authors in patent publication US6387949B1, “Substituted urea compounds useful in pain management” (AstraZeneca Canada Inc., priority 1998, dated 2002).

Legend:
[1] = background statement
δ receptor = δ receptor (Homo sapiens, UniProt P41143); conditions: background statement
δ receptor, sequence (P41143 whole entry): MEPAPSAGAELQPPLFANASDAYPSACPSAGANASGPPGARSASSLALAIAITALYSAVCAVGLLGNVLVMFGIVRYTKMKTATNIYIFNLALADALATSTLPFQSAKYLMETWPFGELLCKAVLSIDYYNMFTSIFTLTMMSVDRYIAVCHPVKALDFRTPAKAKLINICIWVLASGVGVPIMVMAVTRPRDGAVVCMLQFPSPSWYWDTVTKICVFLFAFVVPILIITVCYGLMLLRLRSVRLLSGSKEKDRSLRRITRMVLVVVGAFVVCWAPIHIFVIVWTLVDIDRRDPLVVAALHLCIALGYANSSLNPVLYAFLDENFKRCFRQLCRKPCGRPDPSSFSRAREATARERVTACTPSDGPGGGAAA

Oc1ccc2c3c1O[C@H]1c4[nH]c5ccccc5c4C[C@@]4(O)[C@@H](C2)N(CC2CC2)CC[C@]314 [naltrindole]
analgesic activity [1]: no analgesic activity | selectivity for the δ receptor vs. μ receptor binding (δ receptor): < 10 fold
